Results on 1 molecule are retold here after ChEMBL document CHEMBL3351309, “DNA binders in clinical trials and chemotherapy” (2014).

SMILES strings stand for the structures.

For the assay, the system named is U2OS. The assay is described as follows: Growth inhibition of human U2OS cells after 3 days in presence of werner syndrome helicase inhibitor NSC 19630. Type of assay: functional.

Regarding `Cc1oc2nc1-c1nc(co1)-c1nc(co1)-c1nc(co1)-c1nc(co1)-c1nc(co1)C1=NC(CS1)c1nc-2c(C)o1` (stereo unspecified) [TELOMESTATIN], the “growth inhibition (GI)” value amounted to 70%.
